Source: ChEMBL document CHEMBL5727968, “3-phenyl-pyrazole derivatives as modulators of the 5-HT2A serotonin receptor useful for the treatment of disorders related thereto” (2020)

target: 5-hydroxytryptamine receptor 2A (Homo sapiens, UniProt P28223); experiment: [125I]DOI Radioligand Binding Assay: Radioligand binding assays for human 5-HT2A receptor was conducted using the 5-HT2 agonist [125I]DOI as radioligand. To define nonspecific binding, 10 μM DOI was used for all assays. For competitive binding studies, 0.5 nM [125I]DOI was used and compounds were assayed over a range of 0.01 nM to 10 μM. Assays were conducted in a total volume of 200 μl in 96-well Perkin Elmer GF/C filter plates in assay buffer (50 mM Tris-HCl, pH 7.4, 0.5 mM EDTA, 5 mM MgCl2, and 10 μM pargyline). Assay incubations were performed for 60 min at room temperature and were terminated by rapid filtration under vacuum pressure of the reaction mixture over Whatman GF/C glass fiber filters presoaked in 0.5% PEI using a Brandell cell harvestor. Filters were then washing several times with ice-cold wash buffer (50 mM Tris-HCl, pH 7.4). Plates were then dried at room temperature and counted in a Wallac microBeta scintillation counter.
Sequence (P28223 whole entry): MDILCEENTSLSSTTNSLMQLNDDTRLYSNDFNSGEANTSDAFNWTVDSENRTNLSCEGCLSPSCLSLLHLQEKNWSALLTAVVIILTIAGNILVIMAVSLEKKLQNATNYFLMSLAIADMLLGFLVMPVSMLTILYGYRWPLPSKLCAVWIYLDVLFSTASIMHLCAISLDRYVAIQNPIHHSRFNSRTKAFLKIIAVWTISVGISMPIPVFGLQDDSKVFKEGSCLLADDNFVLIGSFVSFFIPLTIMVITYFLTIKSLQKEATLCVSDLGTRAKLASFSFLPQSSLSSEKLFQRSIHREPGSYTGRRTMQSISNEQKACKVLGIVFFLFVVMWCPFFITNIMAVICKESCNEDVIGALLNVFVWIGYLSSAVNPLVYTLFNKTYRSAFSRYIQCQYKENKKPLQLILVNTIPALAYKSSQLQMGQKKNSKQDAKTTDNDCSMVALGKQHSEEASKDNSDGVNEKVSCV

Row | SMILES | IC50 [nM]
1 | Cn1nccc1-c1cc(NC(=O)NCc2ccc(Cl)cc2)ccc1OCCN1CCCC1 | 10.2
2 | CCC(C)OC(=O)Nc1ccc(OCCN2CCCC2)c(-c2c(Br)cnn2C)c1 (stereo not drawn) | 1.1
3 | Cn1nccc1-c1cc(NC(=O)Cc2ccc(F)cc2)ccc1OCCN1CCCCC1 | 13.7
